Among the test systems are HCC-2998 colon; UACC-62 melanoma; SF-539 CNS; CCRF-CEM leukemia; PC-3 prostate; U251 CNS; RXF 393 renal; SK-MEL-5 melanoma; NCI-H522 lung; SK-MEL-28 melanoma.
Holding throughout (assay): growth of human tumour cells (NCI), 48 h

The record followed here is PubChem BioAssay (NCI).

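Step 1: Grow cells in 96-well plates. Step 2: Expose to compound for 48 hours at 5 concentrations. Step 3: Interpolate endpoints linearly; if unreached, use highest concentration. Definition used: TGI = concentration required for complete inhibition of growth.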

In the case of `CCOC(=O)c1ccc(Nc2nc3ccccc3nc2-c2cccs2)cc1`, the TGI was 77.7 µM in the assay with HCC-2998 colon; 33.6 µM with UACC-62 melanoma; greater than 100 µM in the assay with SF-539 CNS; greater than 100 µM with CCRF-CEM leukemia; greater than 100 µM in the assay on PC-3 prostate; greater than 100 µM with U251 CNS. The TGI in the assay on RXF 393 renal was greater than 100 µM; in the assay on SK-MEL-5 melanoma it was greater than 100 µM; in the assay on NCI-H522 lung it was 80.7 µM; in the assay on SK-MEL-28 melanoma, greater than 100 µM.

Turning to `O=C(O)CSc1ccccc1C(=O)O`, the TGI with HCC-2998 colon is 46.8 µM; in the assay with UACC-62 melanoma, greater than 100 µM; with SF-539 CNS it was greater than 100 µM; in the assay with CCRF-CEM leukemia, greater than 100 µM; with PC-3 prostate, greater than 100 µM; in the assay on U251 CNS, greater than 100 µM. The TGI in the assay with RXF 393 renal, in the assay with SK-MEL-5 melanoma, with NCI-H522 lung and in the assay on SK-MEL-28 melanoma was greater than 100 µM throughout.

Take `COc1ccc(C#Cn2nnc3ccccc32)cc1`: the TGI was 82 µM with HCC-2998 colon; greater than 100 µM in the assay with UACC-62 melanoma; greater than 100 µM in the assay with SF-539 CNS; greater than 100 µM in the assay on PC-3 prostate; greater than 100 µM in the assay on U251 CNS; greater than 100 µM in the assay on RXF 393 renal. Also, the TGI in the assay with SK-MEL-5 melanoma, with NCI-H522 lung and in the assay with SK-MEL-28 melanoma was greater than 100 µM in each case.

Regarding `Cc1cn(C2CCC(CO)(CF)O2)c(=O)[nH]c1=O` (stereo not given), the TGI in the assay with HCC-2998 colon, with UACC-62 melanoma, with SF-539 CNS, in the assay on CCRF-CEM leukemia, in the assay on PC-3 prostate and in the assay on U251 CNS was greater than 100 µM each time. The TGI in the assay on RXF 393 renal, with SK-MEL-5 melanoma, in the assay on NCI-H522 lung and with SK-MEL-28 melanoma was greater than 100 µM in each case.

As to `Cc1cc(-n2nnc(C(=O)O)c2-c2ccccc2)c2ccc(Cl)cc2n1`, the TGI in the assay with HCC-2998 colon, in the assay on UACC-62 melanoma, in the assay with SF-539 CNS, with CCRF-CEM leukemia, in the assay with PC-3 prostate and in the assay on U251 CNS was greater than 100 µM throughout. The TGI in the assay with RXF 393 renal, with SK-MEL-5 melanoma, in the assay on NCI-H522 lung and in the assay on SK-MEL-28 melanoma was greater than 100 µM each time.

Consider `N#Cc1c(-c2ccc(Cl)cc2)cc(-c2ccc(Nc3ccnc4cc(Cl)ccc34)cc2)[nH]c1=O`, for which the TGI was greater than 100 µM in the assay with HCC-2998 colon; greater than 100 µM in the assay with UACC-62 melanoma; greater than 100 µM in the assay on SF-539 CNS; 31.6 µM in the assay on CCRF-CEM leukemia; greater than 100 µM in the assay with PC-3 prostate; greater than 61 µM with U251 CNS. Further, the TGI in the assay with RXF 393 renal is greater than 68 µM; in the assay on SK-MEL-5 melanoma, greater than 100 µM; in the assay with NCI-H522 lung it was greater than 100 µM; with SK-MEL-28 melanoma, greater than 100 µM.

Consider `CC1C(NNC(N)=O)Oc2cc3c(cc2C1c1ccccc1O)OCO3` (stereo not given), for which the TGI in the assay with HCC-2998 colon is greater than 100 µM; in the assay with UACC-62 melanoma it was greater than 100 µM; in the assay on SF-539 CNS, 74 µM; in the assay on CCRF-CEM leukemia it was 54.5 µM; with PC-3 prostate it was 90.6 µM; with U251 CNS it was greater than 100 µM. Further, the TGI in the assay on RXF 393 renal is 84.6 µM; in the assay on SK-MEL-5 melanoma, greater than 100 µM; in the assay on NCI-H522 lung, 58.6 µM; with SK-MEL-28 melanoma, greater than 100 µM.

With `NCCCN(CCCCN(CCCN)C(=O)OCc1ccccc1)C(=O)OCc1ccccc1`, the TGI in the assay with HCC-2998 colon, in the assay with UACC-62 melanoma, in the assay on SF-539 CNS, in the assay with CCRF-CEM leukemia, with PC-3 prostate and in the assay on U251 CNS was greater than 100 µM throughout. The TGI in the assay with RXF 393 renal was greater than 100 µM; in the assay with SK-MEL-5 melanoma, greater than 100 µM; in the assay on NCI-H522 lung, 85.4 µM; with SK-MEL-28 melanoma, greater than 100 µM.

In the case of `CC(C)(C)OC(=O)[C@@H]1CCC(=O)N1C1(c2ccccc2)c2ccccc2-c2ccccc21`, the TGI in the assay on HCC-2998 colon was greater than 100 µM; in the assay on UACC-62 melanoma, greater than 100 µM; in the assay with SF-539 CNS it was 35.7 µM; with CCRF-CEM leukemia, 43.7 µM; in the assay on PC-3 prostate, greater than 100 µM; in the assay on U251 CNS, 73.8 µM. Moreover, the TGI turned out to be 32.2 µM with RXF 393 renal, 51.9 µM in the assay on SK-MEL-5 melanoma, 94 µM in the assay with NCI-H522 lung and 71.3 µM in the assay on SK-MEL-28 melanoma.

For the compound `Cc1cc(C)c2c(c1)CC1(Cc3cc(C)c(C)cc3C1=O)C2=O` (stereo not given), the TGI with HCC-2998 colon, with UACC-62 melanoma, in the assay with SF-539 CNS, in the assay with CCRF-CEM leukemia, in the assay with PC-3 prostate and in the assay on U251 CNS was greater than 100 µM throughout. Further, the TGI in the assay with RXF 393 renal, in the assay on SK-MEL-5 melanoma, in the assay on NCI-H522 lung and in the assay with SK-MEL-28 melanoma was greater than 100 µM throughout.

In the case of `COC(=O)[C@@H]1CS(=O)(=O)C(C(C)C)N1C(C)=O` (stereo not given in full), the TGI in the assay on HCC-2998 colon, in the assay on UACC-62 melanoma, with SF-539 CNS, with PC-3 prostate, in the assay with U251 CNS and with RXF 393 renal was greater than 100 µM in each case. Further, the TGI in the assay on SK-MEL-5 melanoma, in the assay on NCI-H522 lung and in the assay with SK-MEL-28 melanoma was greater than 100 µM in each case.

Regarding `Nc1cc2c(c3ccccc13)C(CCl)CN2C(=O)c1cc2cc(NC(=O)Nc3ccc4[nH]c(C(=O)N5CC(CCl)c6c5cc(N)c5ccccc65)cc4c3)ccc2[nH]1` (stereo not given), the TGI was 1.19 µM in the assay with HCC-2998 colon; 1.05 µM in the assay with UACC-62 melanoma; 1.11 µM with SF-539 CNS; 2.98 µM in the assay on CCRF-CEM leukemia; 12.8 µM in the assay with PC-3 prostate; 0.248 µM with RXF 393 renal. Also, the figures for the TGI with SK-MEL-5 melanoma, with NCI-H522 lung and in the assay on SK-MEL-28 melanoma were 0.341 µM, 1.42 µM and 2.52 µM, respectively.

As to `ClC(Cl)(Cl)C1CCOC1n1nnc2ccccc21` (stereo not given), the TGI with HCC-2998 colon, with UACC-62 melanoma, in the assay on SF-539 CNS, in the assay with CCRF-CEM leukemia, in the assay with PC-3 prostate and in the assay with U251 CNS was greater than 100 µM each time. Besides, the TGI in the assay with RXF 393 renal, in the assay with SK-MEL-5 melanoma and with NCI-H522 lung was greater than 100 µM in each case.

For `COc1ccc(C2C3=C(N=C4SC(C(C)=O)=C(C)N42)c2ccccc2CC3)cc1` (stereo not given), the TGI in the assay on HCC-2998 colon, in the assay on UACC-62 melanoma, with SF-539 CNS, in the assay on CCRF-CEM leukemia, with PC-3 prostate and with U251 CNS was greater than 100 µM throughout. In addition, the TGI with RXF 393 renal, in the assay on SK-MEL-5 melanoma and in the assay on SK-MEL-28 melanoma was greater than 100 µM throughout.
